{"source": "paper PMC4125160", "about": "“Neurotoxicity and Mode of Action of N, N-Diethyl-Meta-Toluamide (DEET)” (PLoS ONE, 2014)", "key": {"[1]": {"system": "Anopheles gambiae AKRON (pyrethroid and anticholinesterase resistance)", "test": "WHO filter paper contact toxicity bioassay", "format": "in vivo", "conditions": "WHO filter paper assay, 1 h exposure, mortality at 24 h, read-out: LC50 (95% CI)", "experimental": "(§1) Contact toxicity bioassays were performed on both strains of Anopheles gambiae, G3 (susceptible) and AKRON (pyrethroid and anticholinesterase resistance) according to WHO protocol. Adult female mosquitoes were 2–5 days of age and non-blood fed at the time of experimentation. Five concentrations of inhibitor dissolved in ethanol were prepared and treated by applying 2 mL of each concentration on a 180 cm^2 (12 cm×15 cm) paper. Papers were left to dry for 24 hours prior to use. Mosquitoes were chilled for three minutes on ice, after which 25 females were placed in the WHO kit holding chamber to recover for one hour. Mosquitoes were then moved to the treatment chamber, which contain the treated paper, and exposed for one hour. After the one-hour exposure, the mosquitoes were transferred back to the holding chamber and maintained on 10% sugar solution for 24 hrs. Each concentration was repeated in triplicate. […] Three LC50 values were obtained and the mean LC50 value was used for statistical analysis.\n(§2) For all toxicity assays, control mortality was corrected for using Abbots formula [19]; where corrected percent mortality = (% alive in control–% alive in treated) /% alive in control."}, "[2]": {"system": "Anopheles gambiae G3 (susceptible)", "test": "WHO filter paper contact toxicity bioassay", "format": "in vivo", "conditions": "WHO filter paper assay, 1 h exposure, mortality at 24 h, read-out: LC50 (95% CI)", "experimental": "as §1, §2"}, "Drosophila melanogaster": {"system": "Drosophila melanogaster", "test": "Diet (sugar-feeding) toxicity assay", "format": "in vivo", "conditions": "1 mg/ml, mortality at 24 h", "experimental": "Diet toxicity assays were performed on mixed sex adult Drosophila melanogaster fasted for 8 hours prior to initiating the experiment. Flies were transferred into a container stoppered with a cotton ball infused with 1 ml of a sucrose/DEET solution containing 20 insects (2–3 day old adults). The assay was run three times on three different days with matched controls. Mortality was recorded at the 24-hour time point.\nas §2"}, "[3]": {"system": "sodium channels in neonatal rat cortical neurons", "test": "Patch clamp of rat cortical neurons, sodium currents", "format": "cell-based", "experimental": "(§3) Rat cortical neurons (purchased from Lonza, Walkersville, MD, USA) were placed on poly-lysine coated glass cover slips in 35 mm dishes, and cultured in primary neuron basal medium with added 2% neural grown factor and 1% glutamine (from Lonza). The medium was half changed every 3 days, and the cells were used at 6–12 days. The neurons had dendrites and axons and the diameters of the somata were about 15–20 µm. Cells were cultured on cover slips and were immersed in 35 mm Petri dishes filled with room temperature extracellular saline. Patch pipettes were pulled from borosilicate glass capillaries with filament (BF150-86-10, Sutter Instrument, Novato CA, USA) on a P-1000 Flaming/Brown micropipette puller (Sutter Instrument). Extracellular solution was the same regardless of the target ion channel and contained: 140 mM NaCl, 5 mM KCl, 2 mM MgCl2, 2 mM CaCl2, 10 mM glucose, and 10 mM HEPES (pH = 7.4). Intracellular patch solution for potassium channel recordings consisted of: 140 mM KF, 10 mM NaCl, 2 mM MgCl2, and 10 mM HEPES (pH = 7.2). Intracellular patch solution for sodium channel recordings consisted of: 140 mM CsCH3SO3 10 mM NaCl, 2 mM MgCl2, 10 mM HEPES (pH = 7.2), where CsCH3SO3 was used to eliminate potassium currents during sodium channel analysis. The patch electrodes had resistances of 5–7 MOhms.\nPatch clamp recordings were performed with a 40x/0.80W water immersion objective (working distance 3.5 mm) using a forced-air-cooled Photometrics Evolve 512/CCD97 camera system. Following gigaseal formation, the membrane was ruptured through a brief, manual suction of the electrode, or by a 2 msec long zap pulse. Currents were amplified with the use of a patch-clamp amplifier (Axopatch 200B, Molecular Devices LLC, Sunnyvale, CA, USA) and processed for analysis via A/D-converter (Digidata 1440A, Molecular Devices LLC). Recordings underwent series resistance compensation, low-pass filtering at 1 kHz, and were sampled at 10 kHz or 100 kHz for potassium and sodium currents, respectively. For recording and analyzing data, pClamp 10.0 software (Molecular Devices LLC) was used."}, "[4]": {"system": "potassium channels (Kv2 delayed rectifier) in neonatal rat cortical neurons", "test": "Patch clamp of rat cortical neurons, potassium currents", "format": "cell-based", "experimental": "as §3, with “MOhms. […]” for “MOhms.”"}, "rats": {"system": "rats", "set-up": "method as in ref 24 = [24]; 24 Macko J , Weeks M ( 1980 ) Phase 6: Acute toxicity evaluation of N,N-diethyl-meta-toluamide (M-Det.) . U.S. Army Environmental Hygiene Agency Study No.71-51-0034-81.", "conditions": "oral administration to rats ref 24; cited from earlier work"}}}
{"molecule": "CCN(CC)C(=O)c1cccc(C)c1", "note": "[DEET, N, N-diethyl-meta-toluamide]", "values": [{"measurement": "LC50", "setting": "[1]", "result": 2700, "unit": "µg/mL"}, {"measurement": "LC50", "setting": "[2]", "result": 1900, "unit": "µg/mL"}, {"measurement": "toxicity in sugar-feeding assay", "setting": "Drosophila melanogaster", "result": "non-toxic"}, {"measurement": "block of inward sodium currents in words", "setting": "[3]; 1 mM", "result": "completely blocked"}, {"measurement": "sodium current amplitude restored by washout", "setting": "[3]; after 1 mM block", "result": "approximately 50%"}, {"measurement": "IC50", "setting": "[3]; read-out: IC50 against sodium channels", "result": "~700", "unit": "µM"}, {"measurement": "control current amplitude restored by washout", "setting": "[4]", "result": "approximately 50%"}, {"measurement": "LD50", "setting": "rats", "result": "ca. 3000 mg/kg"}]}
